# From ChEMBL document CHEMBL4152225, “Dual-tail arylsulfone-based benzenesulfonamides differently match the hydrophobic and hydrophilic halves of human carbonic anhydrases active sites: Selective inhibitors for the tumor-associated hCA IX isoform” (Eur J Med Chem, 2018)
# Assays:
# Carbonic anhydrase 9 = Carbonic anhydrase 9 (Homo sapiens, UniProt Q16790); experiment: Inhibition of recombinant human carbonic anhydrase 9 assessed as inhibition of CO2 hydration preincubated for 15 mins prior to testing by phenol red based stopped-flow assay
# MDA-MB-231 = experiment: Cytotoxicity against human MDA-MB-231 cells under hypoxic condition by MTT assay
# MCF7 = experiment: Cytotoxicity against human MCF7 cells under hypoxic condition by MTT assay
SMILES,Ki (Carbonic anhydrase 9) [µM],IC50 (MDA-MB-231) [µM],IC50 (MCF7) [µM]
Cc1ccc(S(=O)(=O)C/C(=N\Nc2ccc(S(N)(=O)=O)cc2)c2ccc(Cl)cc2)cc1,0.0087,18.2,3.9
NS(=O)(=O)c1ccc(N/N=C(\CS(=O)(=O)c2ccccc2)c2cc3ccccc3o2)cc1,0.0691,–,–
Cc1ccc(S(=O)(=O)C/C(=N\Nc2ccc(S(N)(=O)=O)cc2)c2ccc(F)cc2)cc1,0.0276,–,–
NS(=O)(=O)c1ccc(N/N=C(\CS(=O)(=O)c2ccccc2)c2ccc(Cl)cc2)cc1,0.0348,–,–
Cc1ccc(/C(CS(=O)(=O)c2ccccc2)=N/Nc2ccc(S(N)(=O)=O)cc2)cc1,0.0365,–,–
Cc1ccc(S(=O)(=O)C/C(=N\Nc2ccc(S(N)(=O)=O)cc2)c2ccc([N+](=O)[O-])cc2)cc1,0.0792,–,–
NS(=O)(=O)c1ccc(N/N=C(\CS(=O)(=O)c2ccccc2)c2ccc([N+](=O)[O-])cc2)cc1,0.0716,–,–
Cc1ccc(S(=O)(=O)C/C(=N\Nc2ccc(S(N)(=O)=O)cc2)c2ccsc2)cc1,0.0563,–,–
Cc1ccc(S(=O)(=O)C/C(=N\Nc2ccc(S(N)(=O)=O)cc2)c2ccccc2)cc1,0.0395,–,–
NS(=O)(=O)c1ccc(N/N=C(\CS(=O)(=O)c2ccccc2)c2ccc(-c3ccccc3)cc2)cc1,0.132,–,–
NS(=O)(=O)c1ccc(N/N=C(\CS(=O)(=O)c2ccccc2)c2ccc(F)cc2)cc1,0.0075,–,–
COc1cccc2c1C(=O)c1c(O)c3c(c(O)c1C2=O)C[C@@](O)(C(=O)CO)C[C@@H]3O[C@H]1C[C@H](N)[C@H](O)[C@H](C)O1 [DOXORUBICIN],–,–,0.37
Cc1ccc(S(=O)(=O)C/C(=N\Nc2ccc(S(N)(=O)=O)cc2)c2ccc3ccccc3c2)cc1,0.0153,–,–
Cc1ccc(/C(CS(=O)(=O)c2ccc(C)cc2)=N/Nc2ccc(S(N)(=O)=O)cc2)cc1,0.0053,5.14,2.33
NS(=O)(=O)c1ccc(N/N=C(\CS(=O)(=O)c2ccccc2)c2ccco2)cc1,0.0793,–,–
NS(=O)(=O)c1ccc(N/N=C(\CS(=O)(=O)c2ccccc2)c2ccc3ccccc3c2)cc1,0.0393,–,–
Cc1ccc(S(=O)(=O)C/C(=N\Nc2ccc(S(N)(=O)=O)cc2)c2ccc(Br)cc2)cc1,0.0561,–,–
NS(=O)(=O)c1ccc(N/N=C(\CS(=O)(=O)c2ccccc2)c2ccc(Br)cc2)cc1,0.0612,–,–
